Consider 4 compounds from article PMC6703555 (Journal of medicinal chemistry, 2018).

Where only a bound is given, the exact number is not on record here.

In one data set the test system is Vγ9Vδ2 T cells. As to conditions: 72 hour compound exposure, PBMCs; cited from earlier work.
In a further data set the test system is B30.2 domain of BTN3A1. The following applies: ITC; cited from earlier work.
For the next data set, the system named is cancer cells. As to conditions: 2 hour exposure; cited from earlier work.
The conditions of data set [1]: human plasma.
A short description of a further data set: in vitro. The following applies: human, plasma, pH 7.5, half-life, 50% pooled human plasma in PBS.

As to `C/C(=C\CCP(=O)([O-])[O-])CO.[Na+].[Na+]` [Compound 10], in the data set on Vγ9Vδ2 T cells, the EC50 was 4000 nM. Moreover, in the data set with B30.2 domain of BTN3A1, the “binding to the B30.2 domain of BTN3A1” value is “does bind”.

Turning to `COP(=O)(CC/C=C(\C)CO)OC` [Compound 11], the EC50 in the data set on Vγ9Vδ2 T cells is above 10000 nM.

As to `C/C(=C\COP(=O)(O)OP(=O)(O)O)CO` [HMBPP, (E)-4-hydroxy-3-methyl-but-2-enyl diphosphate], the EC50 in the data set with cancer cells is 19 nM.

With `C/C(=C\CCP(=O)(OCOC(=O)C(C)(C)C)OCOC(=O)C(C)(C)C)CO` [Compound 2], the “hydrolysis after two hours” value in data set [1] is “more than 95%”. Besides, the EC50 in the data set on cancer cells is 1.2 nM. The same compound returned a half-life in the data set “in vitro” of around 8 min.
